Data taken from US10800772B2 (Gilead Sciences, Inc., priority 2016, dated 2020).

What was measured:
Format in all cases: cell-based, HIV-1
HIV-IIIb (wildtype) = experiment: Antiviral assay in MT4 cells, HIV-IIIb wildtype; conditions: Human immunodeficiency virus 1, IIIB, MT4, 120 h, read-out: WT EC50
Method: (§1) Antiviral Assay in MT4 Cells
(§2) For the antiviral assay, 0.4 μL of 189X test concentration of 3-fold serially diluted compound in DMSO was added to 40 μL of cell growth medium (RPMI 1640, 10% FBS, 1% Penicillin-Streptomycin, 1% L-Glutamine, 1% HEPES) in each well of 384-well plate (10 concentrations) in quadruplicate.
(§3) 1 mL Aliquots of MT4 cells were pre-infected for 3 hours at 37° C. with 25 μL of cell growth medium (mock-infected) or a fresh 1:250 dilution of an HIV-IIIb (wildtype, IN T174I BT, or IN T174I DE) concentrated ABI stock (0.004 m.o.i.). IN T174I BT virus was derived from viral breakthrough (BT) assay as described in Mulato, A.; Hansen, D.; Thielen, A.; Porter, D.; Stepan, G.; White, K.; Daeumer, M.; Cihlar, T.; Yant, S. R. AIDS Research and Human Retrovirues, July 2016, ahead of print. doi:10.1089/aid.2016.0071. IN T174I DE virus was derived from serial passaging with dose escalation (DE) of test compound. Infected and uninfected cells were diluted in cell growth media and 35 μL (2000 cells) was added to each well of the assay plates.
(§4) Assay plates were then maintained in a humidified, 5% CO2 incubator at 37° C. After 5 days of incubation, 25 μl of 2× concentrated CellTiter-Glo™ Reagent (catalog # G7573, Promega Biosciences, Inc., Madison, Wis.) was added to each well of the assay plate. Cell lysis was carried out by incubating at room temperature for 10 minutes and then chemiluminescence was read using an Envision plate reader (PerkinElmer). EC50 values were calculated as the compound concentration that caused a 50% […] in luminescence signal, a measure of HIV-1 replication.

HIV-IIIb IN T174I BT = experiment: Antiviral assay in MT4 cells, HIV-IIIb IN T174I BT virus (from viral breakthrough); conditions: Human immunodeficiency virus 1, IIIB, MT4, 120 h, read-out: T174I BT EC50, MT4 cells, HIV-IIIb IN T174I BT (viral breakthrough), 5 days, CellTiter-Glo
Method: as §1, §2, §3, §4

HIV-IIIb IN T174I DE = experiment: Antiviral assay in MT4 cells, HIV-IIIb IN T174I DE virus (from dose escalation passaging); conditions: Human immunodeficiency virus 1, IIIB, MT4, 120 h, read-out: T174I DE EC50, MT4 cells, HIV-IIIb IN T174I DE (dose escalation), 5 days, CellTiter-Glo
Method: as §1, §2, §3, §4

SMILES	EC50 (HIV-IIIb (wildtype)) [nM]	EC50 (HIV-IIIb IN T174I BT) [nM]	EC50 (HIV-IIIb IN T174I DE) [nM]
COCCN1CC[C@H](c2nn(C)c3ccc(-c4nc5cc(C)c([C@H](OC(C)(C)C)C(=O)O)c(-c6ccc(Cl)cc6)c5s4)cc23)C1 (single isomer, unassigned) [Compound 68]	5	1160	1600
Cc1cc2nc(-c3ccc4c(c3)c(N3CCC3=O)nn4C)sc2c(-c2ccc(Cl)cc2)c1[C@H](OC(C)(C)C)C(=O)O [Compound 3, (S)-2-(tert-butoxy)-2-(7-(4-chlorophenyl)-5-methyl-2-(1-methyl-3-(2-oxoazetidin-1-yl)-1H-indazol-5-yl)benzo[d]thiazol-6-yl)acetic Acid]	43	5710	5710
Cc1cc2nc(-c3ccc4c(c3)c(N3CCN5CCOC[C@@H]5C3)nn4C)sc2c(-c2ccc(Cl)cc2)c1[C@H](OC(C)(C)C)C(=O)O [Compound 4, (S)-2-(tert-butoxy)-2-(7-(4-chlorophenyl)-2-(3-((S)-hexahydropyrazino[2,1-c][1,4]oxazin-8(1H)-yl)-1-methyl-1H-indazol-5-yl)-5-methylbenzo[d]thiazol-6-yl)acetic Acid]	10	1270	1740
COC(=O)N1CC[C@@H]1CN1CCC(c2nn(C)c3ccc(-c4nc5cc(C)c([C@H](OC(C)(C)C)C(=O)O)c(-c6ccc(Cl)cc6)c5s4)cc23)CC1 [Compound 5, (S)-2-(tert-butoxy)-2-(7-(4-chlorophenyl)-2-(3-(1-(((R)-1-(methoxycarbonyl)azetidin-2-yl)methyl)piperidin-4-yl)-1-methyl-1H-indazol-5-yl)-5-methylbenzo[d]thiazol-6-yl)acetic Acid]	3	106	169
Cc1cc2nc(-c3ccc4c(c3)c(C3CCN(CC5CCO5)CC3)nn4C)sc2c(-c2ccc(Cl)cc2)c1[C@H](OC(C)(C)C)C(=O)O (stereo partly drawn) [Compound 6, (2S)-2-(tert-butoxy)-2-(7-(4-chlorophenyl)-5-methyl-2-(1-methyl-3-(1-(oxetan-2-ylmethyl)piperidin-4-yl)-1H-indazol-5-yl)benzo[d]thiazol-6-yl)acetic Acid]	4	283	577
CCC(=O)N1CC(N2CCC(c3nn(C)c4ccc(-c5nc6cc(C)c([C@H](OC(C)(C)C)C(=O)O)c(-c7ccc(Cl)cc7)c6s5)cc34)CC2)C1 [Compound 7, (S)-2-(tert-butoxy)-2-(7-(4-chlorophenyl)-5-methyl-2-(1-methyl-3-(1-(1-propionylazetidin-3-yl)piperidin-4-yl)-1H-indazol-5-yl)benzo[d]thiazol-6-yl)acetic Acid]	14	114	138
Cc1cc2nc(-c3ccc4c(c3)c(C3CCN(C5CN(C(C)C(F)(F)F)C5)CC3)nn4C)sc2c(-c2ccc(Cl)cc2)c1[C@H](OC(C)(C)C)C(=O)O (stereo partly drawn) [Compound 8, (2S)-2-(tert-butoxy)-2-(7-(4-chlorophenyl)-5-methyl-2-(1-methyl-3-(1-(1-(1,1,1-trifluoropropan-2-yl)azetidin-3-yl)piperidin-4-yl)-1H-indazol-5-yl)benzo[d]thiazol-6-yl)acetic Acid]	13	1090	1330
Cc1cc2nc(-c3ccc4c(c3)c(N3CCN(C)CC3=O)nn4C)sc2c(-c2ccc(Cl)cc2)c1[C@H](OC(C)(C)C)C(=O)O [Compound 87, (S)-2-(tert-butoxy)-2-(7-(4-chlorophenyl)-5-methyl-2-(1-methyl-3-(4-methyl-2-oxopiperazin-1-yl)-1H-indazol-5-yl)benzo[d]thiazol-6-yl)acetic acid]	13	–	–
Cc1cc2nc(-c3ccc4c(n3)c(N3CCN(C)CC3)nn4C)sc2c(-c2ccc(Cl)cc2)c1[C@H](OC(C)(C)C)C(=O)O [Compound 196, (S)-2-(tert-butoxy)-2-(7-(4-chloro-phenyl)-5-methyl-2-(1-methyl-3-(4-methylpiperazin-1-yl)-1H-pyrazolo [4,3-b]pyridin-5-yl)benzo[d]thiazol-6-yl)acetic acid]	4	–	–
